Assay results from patent US20230172940A1, “METHODS OF EXTENDING LIFESPAN BY ADMINISTERING FERROPTOSIS INHIBITORS” (COLLABORATIVE MEDICINAL DEVELOPMENT, LLC, priority 2020, published 2023).
Where two headings read alike, the source gives them in different places.

Key:
RSL3 = assay: IC50 (RSL3), Table 1; format: cell-based
C. elegans strain TJ1060 = assay: Lifespan determination; format: in vivo, Caenorhabditis elegans; conditions: alternative ferroptosis inhibitor
Protocol: Lifespan was measured using established protocols. SIH was dissolved in neat dimethyl sulfoxide (DMSO; Sigma-Aldrich) then added to the molten NGM at 55° C. (to a final concentration of 250 μM SIH in 0.5% v/v DMSO). Lip-1 was dissolved in neat DMSO then added to the molten NGM at 55° C. (to a final concentration of 200 μM Lip-1 in 0.5% v/v DMSO). Media containing equivalent vehicle alone (0.5% v/v DMSO) was used for comparison. Standard overnight culture of the Escherichia coli (E. coli) strain OP50 was used as the food source.
Lifespan data was collected at 25 (±1) ° C. using the temperature sensitive-sterile strain TJ1060 [spe-9(hc88); fer-15(b26)]. A synchronous population was obtained by transferring egg-laying adults to fresh plates at 16° C. for 2-3 hours. The adults were removed and the plates with eggs then transferred to 25° C. to ensure sterility. After 48 hours at 25° C., when worms were at the late L4/young adult stage, 25-35 nematodes were transferred to fresh plates containing either vehicle control, 250 μM SIH, or 200 μM Lip-1. All plates were coded to allowing blinding of the experimenter to the treatment regime during scoring. Nematodes were scored for survival at one to three-day intervals and transferred to freshly prepared plates as needed (2-5 days).
It is well documented that differences are observed between independent measures of lifespan, with micro-environmental factors such as minor temperature fluctuations potentially resulting differences in median and maximum lifespan between replicates. After determining the optimal doses of 250 μM SIH and 200 μM Lip-1, respectively, cohorts of nematodes were compared in 8 independent replicates. As the number of worms measured is known to influence the likelihood of accurately observing differences in lifespan, the starting populations for all treatments within experiments were in excess of 70 individuals.

| SMILES | IC50 (RSL3) | other results |
| --- | --- | --- |
| CCOC(=O)c1cc(N)c2c(c1)OCCN2 [Compound H-85] | > 1000 nM | – |
| Cc1ccc(-c2ccc(NC(C)(C)C)c(NC3CCCC3)n2)cc1 [Compound A-98, N^3-tert-butyl-N^2-cyclopentyl-6-(p-tolyl)pyridine-2,3-diamine] | 7 nM | – |
| CCC(C)Nc1ccc(-c2cccnc2)nc1NC1CCCC1 (stereo not drawn) [Compound H-74, N^2-cyclopentyl-6-(3-pyridyl)-N^3-sec-butyl-pyridine-2,3-diamine] | 5 nM | – |
| CCC/C=C/c1nc(NC2CCCC2)c2c(n1)SCC(=O)N2 [Compound B-600, 4-(cyclopentylamino)-2-[(1E)-pent-1-en-1-yl]-5H,6H,7H-pyrimido[4,5-b][1,4]thiazin-6-one] | ≥ 3000 nM | – |
| CCCCC(=O)c1cc2c(c(N(S(=O)(=O)CC(C)C)S(=O)(=O)CC(C)C)c1)NCCC2 [Compound B-248, N-isobutylsulfonyl-2-methyl-N-(6-pentanoyl-1,2,3,4-tetrahydroquinolin-8-yl)propane-1-sulfonamide] | > 3000 nM | – |
| CCC(C)Nc1ccc(-c2ccc(OC)cc2)nc1NC1CCCC1 (stereo not drawn) [Compound H-86, N^2-cyclopentyl-6-(4-methoxyphenyl)-N^3-sec-butyl-pyridine-2,3-diamine] | 8 nM | – |
| CC1(Nc2nc(-c3ccc(F)cc3)ccc2NC2CCC2)CCOC1 (stereo not drawn) [Compound P-54, N^3-cyclobutyl-6-(4-fluorophenyl)-N^2-(3-methyltetrahydrofuran-3-yl)pyridine-2,3-diamine] | 3 nM | – |
| COc1ccc(-c2ccc(NC3COC3)c(NC3CCCC3)n2)cc1 [Compound H-87, N^2-cyclopentyl-6-(4-methoxyphenyl)-N^3-(oxetan-3-yl)pyridine-2,3-diamine] | 3 nM | – |
| CCC/C=C/c1nc2c(c(NC3CCCC3)n1)NCCC2 [Compound B-388, N-cyclopentyl-2-[(E)-pent-1-enyl]-5,6,7,8-tetrahydropyrido [3,2-d]pyrimidin-4-amine] | 40 nM | – |
| CCCCC(=O)c1cc2c(c(-n3ccnc3)c1)NCCC2 [Compound B-006, 1-(8-imidazol-1-yl-1,2,3,4-tetrahydroquinolin-6-yl)pentan-1-one] | > 3000 nM | – |
| CCCCCc1nc2c(c(NC3CCCC3)n1)NC(C)(C)CC2 [Compound B-917, N-cyclopentyl-6,6-dimethyl-2-pentyl-5H,6H,7H,8H-pyrido[3,2-d]pyrimidin-4-amine] | > 3000 nM | – |
| CCCCC(=O)c1cc2c(c(OC3CCCC3)c1)NCCC2 [Compound Q-980, 1-[8-(cyclopentoxy)-1,2,3,4-tetrahydroquinolin-6-yl]pentan-1-one] | > 3000 nM | – |
| CCC/C=C/c1nc(NC2CCOC2)c2c(n1)OCC(=O)N2 (stereo not drawn) [Compound B-603, 4-[(oxolan-3-yl)amino]-2-[(1E)-pent-1-en-1-yl]-5H,6H,7H-pyrimido[4,5-b][1,4]oxazin-6-one] | > 3000 nM | – |
| CCCCCc1nc(NC2CCCC2)c2c(n1)SCCN2 [Compound B-601, N-cyclopentyl-2-pentyl-5H,6H,7H-pyrimido[4,5-b][1,4]thiazin-4-amine] | 3 nM | – |
| CCCCC(=O)c1cc2c(c(-c3ccncc3)c1)NCCC2 [Compound Q-950, 1-[8-(4-pyridyI)-1,2,3,4-tetrahydroquinolin-6-yl]pentan-1-one] | > 3000 nM | – |
| CCCCC(=O)c1cc2c(c(NC3CCCC3)n1)NCCC2 [Compound B-647, 1-[8-(cyclopentylamino)-1,2,3,4-tetrahydro-1,7-naphthyridin-6-yl]pentan-1-one] | 8 nM | – |
| CCCCCc1ccc(NC(C)CC)c(NC2CCCC2)n1 (stereo not drawn) [Compound H-72, N^2-cyclopentyl-6-pentyl-N^3-sec-butyl-pyridine-2,3-diamine] | 6 nM | – |
| CCCCC(O)c1cc2c(c(NC(C)(C)C)n1)NCC(C(F)(F)F)C2 (stereo not drawn) [Compound R-812, 1-[8-(tert-butylamino)-3-(trifluoromethyl)-1,2,3,4-tetrahydro-1,7-naphthyridin-6-yl]pentan-1-ol] | 40 nM | – |
| CCCCC(O)c1nc2c(c(Nc3ccccn3)n1)NCCC2 (stereo not drawn) [Compound G-63, 1-[4-(2-pyridylamino)-5,6,7,8-tetrahydropyrido[3,2-d]pyrimidin-2-yl]pentan-1-ol] | – | IC50 (RSL3; unit cell prints uM): > 10000 nM |
| CC(C)=Cc1nc(C)nc(NC2CCCC2)c1N [Compound F-99, N^4-cyclopentyl-2-methyl-6-(2-methylprop-1-enyl)pyrimidine-4,5-diamine] | > 625 nM | – |
| CCCCCc1nc(NC2CCCC2)c2c(n1)OCCN2 [Compound B-711, N-cyclopentyl-2-pentyl-5H,6H,7H-pyrimido[4,5-b][1,4]oxazin-4-amine] | 41 nM | – |

| SMILES | IC50 (RSL3) | other results |
| --- | --- | --- |
| CCOC(=O)c1cc2c(c(C(=O)C(F)(F)F)c1)NC(C)(C)C=C2 [Compound B-101, Ethyl 2,2-dimethyl-8-(2,2,2-trifluoroacetyl)-1,2-dihydroquinoline-6-carboxylate] | > 3000 nM | – |
| CCCCC(=O)c1cc2c(c(NC3CCCC3)c1)OCCC2 [Compound B-035, 1-[8-(cyclopentylamino)-3,4-dihydro-2H-1-benzopyran-6-yl]pentan-1-one] | > 3000 nM | – |
| Cc1ccc(-c2nc3c(c(NC4CCCC4)n2)NCCC3)cc1 [Compound A-32, N-cyclopentyl-2-(p-tolyl)-5,6,7,8-tetrahydropyrido[3,2-d]pyrimidin-4-amine] | 6 nM | – |
| CCC(C)Nc1ccc(-c2ccc(C)cc2)nc1NC(C)(C)C [Compound L-02, N^2-tert-butyl-6-(p-tolyl)-N^3-sec-butyl-pyridine-2,3-diamine] | 5 nM | – |
| Cc1ccc(-c2ccc(NC3COC3)c(NC3CCCC3)n2)cc1 [Compound H-81, N^2-cyclopentyl-N^3-(oxetan-3-yl)-6-(p-tolyl)pyridine-2,3-diamine] | 5 nM | – |
| CNC(=O)c1nc(-c2ccc(C)cc2)nc2c1NC(C)(C)N2C1CCCC1 [Compound K-34, 9-cyclopentyl-N,8,8-trimethyl-2-(p-tolyI)-5,7-dihydro-4H-purine-6-carboxamide] | – | IC50 (RSL3; unit cell prints uM): > 10000 nM |
| CC(C)(C)Nc1ccc(-c2ccncc2)nc1NC1CCCC1 [Compound L-04, N^3-tert-butyl-N^2-cyclopentyl-6-(4-pyridyl)pyridine-2,3-diamine] | 5 nM | – |
| CC1=Nc2cc(C#N)ccc2NC1(C)C [Compound Q-912, 2,2,3-trimethyl-1H-quinoxaline-6-carbonitrile] | > 3000 nM | – |
| CCC(C)Nc1ccc(-c2ccc(C)cc2)nc1NC1CCCC1 (stereo not drawn) [Compound H-61, N^2-cyclopentyl-6-(p-tolyl)-N^3-sec-butyl-pyridine-2,3-diamine] | 7 nM | – |
| CCCCCc1nc(NC2CCCC2)c2c(n1)S(=O)(=O)CCN2 [Compound B-602, N-cyclopentyl-8,8-dioxo-2-pentyl-6,7-dihydro-5H-pyrimido[4,5-b][1,4]thiazin-4-amine] | ≥ 3000 nM | – |
| CCOC(=O)c1ccc(NC2CCCCC2)c(N)c1 [ferrostatin] | – | median lifespan extension (C. elegans strain TJ1060): significant but more modest median lifespan extension |
| CCC(C)Nc1ccc(-c2ccncc2)nc1NC(C)(C)C (stereo not drawn) [Compound P-22] | 1 nM | – |
| CCC(C)Nc1ccc(-c2cncnc2)nc1NC1CCCC1 (stereo not drawn) [Compound H-80, N^2-cyclopentyl-6-pyrimidin-5-yl-N^3-sec-butyl-pyridine-2,3-diamine] | 7 nM | – |
| CCCCC(OC)c1cc2c(c(Nc3ccccn3)c1)NCCC2 (stereo not drawn) [Compound B-397, 6-(1-methoxypentyI)-N-(2-pyridyl)-1,2,3,4-tetrahydroquinolin-8-amine] | 70 nM | – |
| CCCCC(=O)c1nc2c(c(Nc3ccccn3)n1)NCCC2 [Compound G-65, 1-[4-(2-pyridylamino)-5,6,7,8-tetrahydropyrido[3,2-d]pyrimidin-2-yl]pentan-1-one] | – | IC50 (RSL3; unit cell prints uM): > 10000 nM |
| CON(C)C(=O)c1ccc2c(c1)C=CC(C)(C)N2 [Compound B-065] | > 3000 nM | – |
| CCCCC(=O)c1cc2c3c(c1)nc(C(F)(F)F)n3CCC2 [Compound B-099, 1-[2-(trifluoromethyl)-1,3-diazatricyclo[6.3.1.04,12]dodeca-2,4(12),5,7-tetraen-6-yl]pentan-1-one] | > 3000 nM | – |
| CCCCC(=O)c1cc(F)c2c(c1)CCCN2 [Compound B-132] | > 3000 nM | – |
| c1ncc(-c2ncc(NC3COC3)c(NC3CCCC3)n2)cn1 [Compound F-82, N^4-cyclopentyl-N^5-(oxetan-3-yl)-2-pyrimidin-5-yl-pyrimidine-4,5-diamine] | > 625 nM | – |
| CCC(C)Nc1ccc(-c2ccncc2)nc1NC1CCCC1 (stereo not drawn) [Compound H-76, N^2-cyclopentyl-6-(4-pyridyl)-N^3-sec-butyl-pyridine-2,3-diamine] | 6 nM | – |
| CC1(Nc2nc(-c3ccc(F)cc3)ccc2NC2CCOCC2)CCOC1 (stereo not drawn) [Compound N-53, 6-(4-fluorophenyl)-N^2-(3-methyltetrahydrofuran-3-yl)-N^3-tetrahydropyran-4-yl-pyridine-2,3-diamine] | 1 nM | – |
